Source: patent US9533977B2, “Oxazolidinone derivative as CETP inhibitor, its preparation method, and pharmaceutical composition comprising the same” (DONG-A ST CO., LTD., priority 2013, dated 2017)

Target: T1, CETP (Homo sapiens, UniProt P11597)
T1 construct: from tissue; host or cells: human plasma from healthy men
T1 sequence (P11597 18-493): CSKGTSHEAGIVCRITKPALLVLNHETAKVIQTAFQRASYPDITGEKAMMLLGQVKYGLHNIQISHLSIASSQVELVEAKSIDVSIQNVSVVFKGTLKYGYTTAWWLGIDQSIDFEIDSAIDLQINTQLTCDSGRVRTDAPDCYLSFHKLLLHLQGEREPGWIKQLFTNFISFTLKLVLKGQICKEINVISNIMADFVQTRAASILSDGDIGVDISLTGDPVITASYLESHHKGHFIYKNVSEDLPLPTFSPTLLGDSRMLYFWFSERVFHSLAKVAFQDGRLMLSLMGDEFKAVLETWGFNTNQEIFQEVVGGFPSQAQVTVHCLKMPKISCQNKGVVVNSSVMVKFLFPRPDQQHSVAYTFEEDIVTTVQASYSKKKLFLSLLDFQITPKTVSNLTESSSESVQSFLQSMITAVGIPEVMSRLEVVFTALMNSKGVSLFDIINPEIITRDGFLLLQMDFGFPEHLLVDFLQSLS
Assay: Inhibitory activity against CETP in human plasma (Roar CETP activity kit, fluorescence)
Type: biochemical
Details: plasma from healthy men diluted 1:10 in assay buffer, 37° C., 3 hrs, fluorescence 465/535 nm; read-out: IC50, Inhibition of CETP Activity in Human Plasma
Procedure, shortened: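 Healthy male human plasma, diluted 1:10, incubated 3 hrs at 37° C with donor/acceptor fluorescent substrates and compound (0.01–10000 nM, DMSO). Fluorescence at ex 465/em 535 nm, background-corrected against no-plasma and no-compound wells; IC50 from sigmoidal fit.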

For `CCN(c1ncc(C(F)(F)F)cc1CN1C(=O)O[C@H](c2cc(C(F)(F)F)cc(C(F)(F)F)c2)[C@@H]1C)C1CCN(C(=O)OC(C)(C)C)CC1` [Example 27, t-butyl 4-{[3-({(4S,5R)-5-[3,5-bis(trifluoromethyl)phenyl]-4-methyl-2-oxo-oxazolidin-3-yl}methyl)-5-(trifluoromethyl)pyridin-2-yl](ethyl)amino}piperidine-1-carboxylate], which IC50 is on record?
Its IC50 is 430 nM.

`C[C@H]1[C@@H](c2cc(C(F)(F)F)cc(C(F)(F)F)c2)OC(=O)N1Cc1cc(C(F)(F)F)cnc1N(C1CCOCC1)C1CC1` [Example 10] was tested. Which IC50 did it give?
The IC50 was 60 nM.

For `CCN(C[C@H]1CC[C@H](CC(=O)O)CC1)c1ncc(C2CCC2)nc1CN1C(=O)OC(c2cc(C(F)(F)F)cc(C(F)(F)F)c2)[C@@H]1C` (some centres unmarked) [Example 122], which IC50 is on record?
The IC50 was 4.68 nM.

`Cc1noc(C)c1-c1cnc(N2CCCC(C(F)(F)F)C2)c(CN2C(=O)O[C@@H](c3cc(C(F)(F)F)cc(C(F)(F)F)c3)[C@@H]2C)n1` (stereo partly drawn) [Example 100, (4S,5S)-5-[3,5-bis(trifluoromethyl)phenyl]-3-{[6-(3,5-dimethylisoxazol-4-yl)-3-[3-(trifluoromethyl)piperidin-1-yl]pyrazin-2-yl]methyl}-4-methyloxazolidin-2-one] was tested. Which IC50 did it give?
Its IC50 is 15.6 nM.

For `C[C@H]1C(c2cc(C(F)(F)F)cc(C(F)(F)F)c2)OC(=O)N1Cc1nc(C2CCCC2)cnc1N(C)C[C@H]1CC[C@H](CC(=O)O)CC1` (some centres unmarked) [Example 129], which IC50 is on record?
Its IC50 is 34 nM.

Which IC50 does the source give for `CCN(c1ncccc1CN1C(=O)O[C@H](c2cc(C(F)(F)F)cc(C(F)(F)F)c2)[C@@H]1C)C1CCOCC1` [Example 14, (4S,5R)-5-[3,5-Bis(trifluoromethyl)phenyl]-4-methyl-3-({[2-ethyl(tetrahydro-2H-pyran-4-yl)amino]-pyridin-3-yl}methyl)-oxazolidin-2-one] here?
Its IC50 is 98 nM.

How did the IC50 turn out when `Cc1noc(C)c1-c1cnc(N2CC(C)OC(C)C2)c(CN2C(=O)O[C@@H](c3cc(C(F)(F)F)cc(C(F)(F)F)c3)[C@@H]2C)n1` (stereo partly drawn) [Example 99, (4S,5S)-5-[3,5-bis(trifluoromethyl)phenyl]-3-{[6-(3,5-dimethylisoxazol-4-yl)-3-(2,6-dimethylmorpholino)pyrazin-2-yl]methyl}-4-methyloxazolidin-2-one] was run?
The IC50 was 83.1 nM.

Which IC50 does the source give for `CCCN(c1ncc(C(F)(F)F)cc1CN1C(=O)O[C@H](c2cc(C(F)(F)F)cc(C(F)(F)F)c2)[C@@H]1C)C1CCOCC1` [Example 8, (4S,5R)-5-[3,5-bis(trifluoromethyl)phenyl]-4-methyl-3-({[2-(propyl)(tetrahydro-2H-pyran-4-yl)amino]-5-(trifluoromethyl)pyridin-3-yl}methyl)-oxazolidin-2-one] here?
The IC50 was 14 nM.

Which IC50 does the source give for `CCN(c1ncc(-c2cscc2C)cc1CN1C(=O)O[C@H](c2cc(C(F)(F)F)cc(C(F)(F)F)c2)[C@@H]1C)C1CCCCC1` [Example 86, (4S,5R)-5-[3,5-bis(trifluoromethyl)phenyl]-4-methyl-3-({[2-(ethyl)(cyclohexyl)amino]-5-(3-methyl-thiophen-4-yl)pyridin-3-yl}methyl)-oxazolidin-2-one] here?
Its IC50 is 30.4 nM.

How did the IC50 turn out when `CCN(c1ncc(-c2cn[nH]c2)cc1CN1C(=O)O[C@H](c2cc(C(F)(F)F)cc(C(F)(F)F)c2)[C@@H]1C)C1CCCCC1` [Example 68, (4S,5R)-5-[3,5-bis(trifluoromethyl)phenyl]-4-methyl-3-({[2-(ethyl)(cyclohexyl)amino]-5-(1H-pyrazol-4-yl)pyridin-3-yl}methyl)-oxazolidin-2-one] was run?
Its IC50 is 334 nM.

How did the IC50 turn out when `C[C@H]1[C@@H](c2cc(C(F)(F)F)cc(C(F)(F)F)c2)OC(=O)N1Cc1cc(C(F)(F)F)cnc1N(C)C1CCCOCC1` (stereo partly drawn) [Example 20, (4S,5R)-5-[3,5-bis(trifluoromethyl)phenyl]-4-methyl-3-({[2-(methyl)(oxepen-4-yl)amino]-5-(trifluoromethyl)pyridin-3-yl}methyl)-oxazolidin-2-one] was run?
The IC50 was 59 nM.

Which IC50 does the source give for `CCN(c1ncc(C(F)(F)F)cc1CN1C(=O)O[C@H](c2cc(C(F)(F)F)cc(C(F)(F)F)c2)[C@@H]1C)C1CCC2(CC1)OCCO2` [Example 21, (4S,5R)-5-[3,5-bis(trifluoromethyl)phenyl]-4-methyl-3-({[2-(ethyl)(1,4-dioxaspiro[4.5]decan-8-yl)amino]-5-trifluoromethylpyridin-3-yl}methyl)-oxazolidin-2-one] here?
Its IC50 is 114 nM.

How did the IC50 turn out when `CCN(c1ncc(C(F)(F)F)cc1CN1C(=O)O[C@H](c2cc(C(F)(F)F)cc(C(F)(F)F)c2)[C@@H]1C)C1CCOCC1` [Example 7, (4S,5R)-5-[3,5-bis(trifluoromethyl)phenyl]-4-methyl-3-({[2-(ethyl)(tetrahydro-2H-pyran-4-yl)amino]-5-(trifluoromethyl)pyridin-3-yl}methyl)-oxazolidin-2-one] was run?
Its IC50 is 6.3 nM.

With `CCN(c1ncc(C(F)(F)F)cc1CN1C(=O)O[C@H](c2cc(C(F)(F)F)cc(C(F)(F)F)c2)[C@@H]1C)C1CCC(=O)CC1` [Example 22, (4S,5R)-5-[3,5-bis(trifluoromethyl)phenyl]-4-methyl-3-({[2-(ethyl)(4-oxocyclohexyl)amino]-5-(trifluoromethyl)pyridin-3-yl}methyl)-oxazolidin-2-one] as the compound, how does the IC50 read?
Its IC50 is 10 nM.

How did the IC50 turn out when `CCN(c1ncc(-c2cccn2C(=O)OC(C)(C)C)cc1CN1C(=O)O[C@@H](c2cc(C(F)(F)F)cc(C(F)(F)F)c2)[C@@H]1C)C1CCCCC1` [Example 76, t-butyl 2-{5-({(4S,5S)-5-[3,5-bis(trifluoromethyl)phenyl]-4-methyl-2-oxo-oxazolidin-3-yl}methyl)-6-[(cyclohexyl)(ethyl)amino]pyridin-3-yl}-1H-pyrrole-1-carboxylate] was run?
Its IC50 is 87.4 nM.

Which IC50 does the source give for `C[C@H]1[C@@H](c2cc(C(F)(F)F)cc(C(F)(F)F)c2)OC(=O)N1Cc1cc(C(F)(F)F)cnc1N(C)C1CCOC1` (stereo partly drawn) [Example 1, (4S,5R)-5-[3,5-bis(trifluoromethyl)phenyl]-4-methyl-3-[(2-(methyl(tetrahydrofuran-3-yl)amino)-5-(trifluoromethyl)pyridin-3-yl)methyl]-oxazolidin-2-one] here?
The IC50 was 112 nM.

For `Cc1noc(C)c1-c1cnc(N(C)C[C@H]2CC[C@H](CC(=O)O)CC2)c(CN2C(=O)OC(c3cc(C(F)(F)F)cc(C(F)(F)F)c3)[C@@H]2C)n1` (some centres unmarked) [Example 126], which IC50 is on record?
The IC50 was 17 nM.

With “(4S,5R)-5-[3,5-bis(trifluoromethyl)phenyl]-4-methyl-3-({[2-(ethyl)(cyclohexyl)amino]-5-(3-methoxy-thiophen-2-yl)pyridin-3-yl}methyl)-oxazolidin-2-one [Example 70]” as the compound, how does the IC50 read?
The IC50 was 9.9 nM.

`CCN(C[C@H]1CC[C@H](CC(=O)O)CC1)c1ncc(-c2ccccc2)nc1CN1C(=O)OC(c2cc(C(F)(F)F)cc(C(F)(F)F)c2)[C@@H]1C` (some centres unmarked) [Example 116] was tested. Which IC50 did it give?
Its IC50 is 6.29 nM.

For “(4S,5R)-5-[3,5-bis(trifluoromethyl)phenyl]-3-({[2-(cyclopropyl)(cyclohexyl)amino]-5-(3,5-dimethyl-isoxazol-4-yl)pyrazin-3-yl}methyl)-4-methyloxazolidin-2-one [Example 97]”, which IC50 is on record?
Its IC50 is 11.6 nM.

For `CCN(c1ncc(C(F)(F)F)cc1CN1C(=O)O[C@H](c2cc(C(F)(F)F)cc(C(F)(F)F)c2)[C@@H]1C)C1CCOC1` (stereo partly drawn) [Example 2, (4S,5R)-5-[3,5-bis(trifluoromethyl)phenyl]-4-methyl-3-{(2-[ethyl(tetrahydrofuran-3-yl)amino]-5-(trifluoromethyl)pyridin-3-yl)methyl}-oxazolidin-2-one], which IC50 is on record?
Its IC50 is 143 nM.

How did the IC50 turn out when `CCN(c1ncc(-c2c(C)n[nH]c2C)cc1CN1C(=O)O[C@H](c2cc(C(F)(F)F)cc(C(F)(F)F)c2)[C@@H]1C)C1CCCCC1` [Example 65, (4S,5R)-5-[3,5-bis(trifluoromethyl)phenyl]-4-methyl-3-({[2-(ethyl)(cyclohexyl-4-yl)amino]-5-(3,5-dimethyl-1H-pyrazol-4-yl)pyridin-3-yl}methyl)-oxazolidin-2-one] was run?
The IC50 was 224 nM.

For `CCN(CC1CCC(CC(=O)O)CC1)c1ncc(-c2cc(C)nn2C)nc1CN1C(=O)OC(c2cc(C(F)(F)F)cc(C(F)(F)F)c2)C1C` [Example 107, trans-4-({[3-({(4S,5S)-5-[3,5-bis(trifluoromethyl)phenyl]-4-methyl-2-oxazolidin-3-yl}methyl)-5-(1,3-dimethyl-1H-pyrazol-5-yl)pyrazin-2-yl]{[N-(ethyl)aminomethyl]cyclohexyl)}acetic acid], which IC50 is on record?
The IC50 was 37 nM.

`CCN(c1ncc(N2CCCC2C(F)(F)F)cc1CN1C(=O)O[C@H](c2cc(C(F)(F)F)cc(C(F)(F)F)c2)[C@@H]1C)C1CCCCC1` (stereo partly drawn) [Example 92, (4S,5R)-5-[3,5-bis(trifluoromethyl)phenyl]-4-methyl-3-({[2-(ethyl)(cyclohexyl)amino]-5-(2-(trifluoromethyl)-pyrrolidin-1-yl)pyridin-3-yl}methyl)-oxazolidin-2-one] was tested. Which IC50 did it give?
Its IC50 is 48 nM.

Which IC50 does the source give for `CCN(c1ncc(-c2c(C)nn(C)c2C)cc1CN1C(=O)O[C@H](c2cc(C(F)(F)F)cc(C(F)(F)F)c2)[C@@H]1C)C1CCCCC1` [Example 64, (4S,5R)-5-[3,5-bis(trifluoromethyl)phenyl]-3-({[2-(ethyl)(cyclohexyl)amino]-5-(1,3,5-trimethyl-1H-pyrazol-4-yl}pyridin-3-yl}methyl)-oxazolidin-2-one] here?
Its IC50 is 29.3 nM.

With `CCC1CCCN1c1cnc(N(CC)C2CCCCC2)c(CN2C(=O)O[C@H](c3cc(C(F)(F)F)cc(C(F)(F)F)c3)[C@@H]2C)c1` (stereo partly drawn) [Example 90, (4S,5R)-5-[3,5-bis(trifluoromethyl)phenyl]-4-methyl-3-({[2-(ethyl)(cyclohexyl)amino]-5-(2-ethyl-pyrrolidin-1-yl)pyridin-3-yl}methyl)-oxazolidin-2-one] as the compound, how does the IC50 read?
The IC50 was 11.8 nM.
